# In US20240300958A1, “COMPOUNDS AND THE USES AND PHARMACEUTICAL COMPOSITIONS THEREOF” (BEIJING YOUZHUJU NETWORK TECHNOLOGY CO. LTD., priority 2023, published 2024):
# Where two headings read alike, the source gives them in different places.
# What was measured:
# BRSK2 = BRSK2 (Homo sapiens (Human), UniProt Q8IWQ3); assay: Kinase inhibition profile (HTRF / ADP Glo kinase assay); format: biochemical
# Method in brief: (§1)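 Kinase/metal + cpd 10 min, 25 °C; add substrate/ATP, 60 min, 25 °C. Detection: HTRF antibody/XL665 60 min, 665/620 nm; or ADP-Glo 40 min + kinase reagent 40 min, luminescence. % inhib vs 0.5% DMSO and 10 μM control.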
# CDK5/p35NCK = CDK5/p35NCK (Homo sapiens (Human), UniProt Q00535); assay: as above; format: biochemical
# Method in brief: as §1
# CK1α = CK1α (Homo sapiens (Human), UniProt P48729); assay: as above; format: biochemical
# Method in brief: as §1
# CLK1 = CLK1 (Homo sapiens (Human), UniProt P49759); assay: as above; format: biochemical
# Sequence of CLK1 (P49759 whole entry): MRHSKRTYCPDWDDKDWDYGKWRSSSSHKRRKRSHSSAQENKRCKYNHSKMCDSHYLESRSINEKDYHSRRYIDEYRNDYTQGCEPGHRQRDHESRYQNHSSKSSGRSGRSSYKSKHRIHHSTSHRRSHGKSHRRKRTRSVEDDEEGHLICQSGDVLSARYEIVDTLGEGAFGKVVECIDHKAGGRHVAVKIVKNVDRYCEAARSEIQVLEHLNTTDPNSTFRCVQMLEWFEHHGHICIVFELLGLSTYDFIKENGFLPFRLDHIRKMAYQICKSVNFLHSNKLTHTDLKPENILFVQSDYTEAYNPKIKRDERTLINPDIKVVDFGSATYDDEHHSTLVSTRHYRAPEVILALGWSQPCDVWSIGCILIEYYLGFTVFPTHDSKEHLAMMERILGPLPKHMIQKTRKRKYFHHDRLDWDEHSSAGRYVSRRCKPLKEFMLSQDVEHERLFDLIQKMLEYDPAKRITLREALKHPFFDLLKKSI
# Method in brief: as §1
# DYRK1B = DYRK1B (Homo sapiens (Human), UniProt Q9Y463); assay: as above; format: biochemical
# Sequence of DYRK1B (Q9Y463 whole entry, species assumed): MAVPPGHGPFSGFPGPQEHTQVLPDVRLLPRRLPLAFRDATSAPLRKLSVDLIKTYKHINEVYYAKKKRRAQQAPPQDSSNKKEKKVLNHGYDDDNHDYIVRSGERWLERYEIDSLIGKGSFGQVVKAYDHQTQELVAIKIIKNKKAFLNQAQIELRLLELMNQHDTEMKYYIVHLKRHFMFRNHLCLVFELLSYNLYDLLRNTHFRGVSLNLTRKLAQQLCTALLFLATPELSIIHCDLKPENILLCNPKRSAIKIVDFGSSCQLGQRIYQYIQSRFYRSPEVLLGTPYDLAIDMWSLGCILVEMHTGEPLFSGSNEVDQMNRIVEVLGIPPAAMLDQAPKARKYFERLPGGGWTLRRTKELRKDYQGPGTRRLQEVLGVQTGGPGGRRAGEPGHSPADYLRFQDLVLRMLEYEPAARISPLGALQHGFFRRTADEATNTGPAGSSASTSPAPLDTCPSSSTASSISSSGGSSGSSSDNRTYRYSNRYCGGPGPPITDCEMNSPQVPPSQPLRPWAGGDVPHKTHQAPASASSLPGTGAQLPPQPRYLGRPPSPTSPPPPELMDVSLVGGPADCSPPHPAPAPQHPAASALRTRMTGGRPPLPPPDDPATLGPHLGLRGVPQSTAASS
# Method in brief: as §1
# Erk2 = Erk2 (Homo sapiens (Human), UniProt P28482); assay: as above; format: biochemical
# Sequence of Erk2 (P28482 whole entry, species assumed): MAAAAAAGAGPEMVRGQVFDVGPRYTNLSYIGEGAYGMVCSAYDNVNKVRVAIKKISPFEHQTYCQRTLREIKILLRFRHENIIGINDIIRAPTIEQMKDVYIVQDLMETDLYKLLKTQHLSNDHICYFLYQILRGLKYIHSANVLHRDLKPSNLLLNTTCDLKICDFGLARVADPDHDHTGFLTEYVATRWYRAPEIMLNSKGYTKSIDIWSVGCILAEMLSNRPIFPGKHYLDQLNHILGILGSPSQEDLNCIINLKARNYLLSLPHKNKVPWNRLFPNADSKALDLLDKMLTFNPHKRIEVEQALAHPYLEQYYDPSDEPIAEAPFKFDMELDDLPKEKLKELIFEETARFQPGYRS
# Method in brief: as §1
# GSK3β = GSK3β (Homo sapiens (Human), UniProt P49841); assay: as above; format: biochemical
# Method in brief: as §1
# JNK1 = JNK1 (Homo sapiens (Human), UniProt P45983); assay: as above; format: biochemical
# Sequence of JNK1 (P45983 whole entry, species assumed): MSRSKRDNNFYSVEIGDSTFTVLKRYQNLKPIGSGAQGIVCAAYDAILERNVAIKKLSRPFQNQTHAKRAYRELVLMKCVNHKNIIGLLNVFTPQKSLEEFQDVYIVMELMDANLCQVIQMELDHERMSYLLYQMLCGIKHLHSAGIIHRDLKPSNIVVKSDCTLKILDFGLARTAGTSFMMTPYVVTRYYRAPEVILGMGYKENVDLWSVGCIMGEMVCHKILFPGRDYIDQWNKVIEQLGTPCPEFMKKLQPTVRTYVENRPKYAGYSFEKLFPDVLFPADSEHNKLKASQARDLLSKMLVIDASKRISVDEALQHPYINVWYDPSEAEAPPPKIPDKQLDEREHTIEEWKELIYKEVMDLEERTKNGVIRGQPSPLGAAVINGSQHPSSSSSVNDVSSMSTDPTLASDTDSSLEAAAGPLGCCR
# Method in brief: as §1
# NEK2 = NEK2 (Homo sapiens (Human), UniProt P51955); assay: as above; format: biochemical
# Sequence of NEK2 (P51955 whole entry, species assumed): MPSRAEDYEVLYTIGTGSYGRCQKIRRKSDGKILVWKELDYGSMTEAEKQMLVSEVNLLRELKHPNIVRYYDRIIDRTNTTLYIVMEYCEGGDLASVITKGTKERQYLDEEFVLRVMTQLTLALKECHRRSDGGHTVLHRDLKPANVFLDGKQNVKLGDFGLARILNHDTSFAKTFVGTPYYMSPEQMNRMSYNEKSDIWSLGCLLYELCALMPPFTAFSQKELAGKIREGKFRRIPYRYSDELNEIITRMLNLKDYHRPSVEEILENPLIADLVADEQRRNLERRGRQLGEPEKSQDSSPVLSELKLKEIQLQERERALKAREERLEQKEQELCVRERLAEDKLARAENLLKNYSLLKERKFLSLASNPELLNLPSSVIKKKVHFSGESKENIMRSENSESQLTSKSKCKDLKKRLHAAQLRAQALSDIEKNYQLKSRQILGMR
# Method in brief: as §1
# PKD2 = PKD2 (Homo sapiens (Human), UniProt Q9BZL6); assay: as above; format: biochemical
# Sequence of PKD2 (Q9BZL6 whole entry): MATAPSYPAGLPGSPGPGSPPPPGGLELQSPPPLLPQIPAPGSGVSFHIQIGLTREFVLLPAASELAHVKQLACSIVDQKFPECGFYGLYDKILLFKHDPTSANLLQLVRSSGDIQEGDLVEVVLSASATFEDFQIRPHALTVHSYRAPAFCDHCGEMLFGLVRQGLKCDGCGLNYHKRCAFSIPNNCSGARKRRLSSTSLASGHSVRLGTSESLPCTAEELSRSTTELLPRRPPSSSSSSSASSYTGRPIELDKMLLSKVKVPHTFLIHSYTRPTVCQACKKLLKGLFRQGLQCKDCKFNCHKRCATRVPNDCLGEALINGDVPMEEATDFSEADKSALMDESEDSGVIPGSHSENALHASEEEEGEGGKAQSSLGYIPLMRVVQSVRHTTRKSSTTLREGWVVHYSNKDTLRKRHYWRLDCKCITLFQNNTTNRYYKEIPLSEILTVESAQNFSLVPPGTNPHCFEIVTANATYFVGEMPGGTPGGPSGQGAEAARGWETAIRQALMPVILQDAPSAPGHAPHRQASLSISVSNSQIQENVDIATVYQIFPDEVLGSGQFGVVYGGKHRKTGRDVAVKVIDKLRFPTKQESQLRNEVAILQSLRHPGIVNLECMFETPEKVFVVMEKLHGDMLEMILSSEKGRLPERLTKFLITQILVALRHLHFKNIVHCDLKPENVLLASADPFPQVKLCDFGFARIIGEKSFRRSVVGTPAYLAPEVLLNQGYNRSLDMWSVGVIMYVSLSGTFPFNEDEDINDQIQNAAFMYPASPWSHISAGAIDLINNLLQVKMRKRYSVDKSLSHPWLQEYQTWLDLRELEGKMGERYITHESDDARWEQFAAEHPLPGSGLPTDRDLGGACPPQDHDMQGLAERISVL
# Method in brief: as §1
# PLK2 = PLK2 (Homo sapiens (Human), UniProt Q9NYY3); assay: as above; format: biochemical
# Sequence of PLK2 (Q9NYY3 whole entry, species assumed): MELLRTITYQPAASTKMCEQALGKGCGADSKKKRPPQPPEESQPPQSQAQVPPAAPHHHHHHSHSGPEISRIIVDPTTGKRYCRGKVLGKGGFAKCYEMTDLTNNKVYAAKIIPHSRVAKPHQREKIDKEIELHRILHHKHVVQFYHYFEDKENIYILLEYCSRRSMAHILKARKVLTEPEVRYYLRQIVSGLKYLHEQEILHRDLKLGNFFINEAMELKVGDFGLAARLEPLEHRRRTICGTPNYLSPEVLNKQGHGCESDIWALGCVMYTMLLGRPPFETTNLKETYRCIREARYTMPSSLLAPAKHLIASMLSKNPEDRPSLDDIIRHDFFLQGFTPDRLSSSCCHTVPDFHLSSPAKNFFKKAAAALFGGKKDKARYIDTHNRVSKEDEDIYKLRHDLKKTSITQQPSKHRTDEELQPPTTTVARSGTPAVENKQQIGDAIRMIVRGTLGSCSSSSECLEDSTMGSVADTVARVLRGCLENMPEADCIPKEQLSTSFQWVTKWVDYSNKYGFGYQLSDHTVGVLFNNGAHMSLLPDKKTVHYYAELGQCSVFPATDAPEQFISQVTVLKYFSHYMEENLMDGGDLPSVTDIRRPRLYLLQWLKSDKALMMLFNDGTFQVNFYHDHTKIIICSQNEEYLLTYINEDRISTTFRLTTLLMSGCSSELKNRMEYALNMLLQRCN
# Method in brief: as §1
# TRKB = TRKB (Homo sapiens (Human), UniProt Q16620); assay: as above; format: biochemical
# Sequence of TRKB (Q16620 32-822, species assumed): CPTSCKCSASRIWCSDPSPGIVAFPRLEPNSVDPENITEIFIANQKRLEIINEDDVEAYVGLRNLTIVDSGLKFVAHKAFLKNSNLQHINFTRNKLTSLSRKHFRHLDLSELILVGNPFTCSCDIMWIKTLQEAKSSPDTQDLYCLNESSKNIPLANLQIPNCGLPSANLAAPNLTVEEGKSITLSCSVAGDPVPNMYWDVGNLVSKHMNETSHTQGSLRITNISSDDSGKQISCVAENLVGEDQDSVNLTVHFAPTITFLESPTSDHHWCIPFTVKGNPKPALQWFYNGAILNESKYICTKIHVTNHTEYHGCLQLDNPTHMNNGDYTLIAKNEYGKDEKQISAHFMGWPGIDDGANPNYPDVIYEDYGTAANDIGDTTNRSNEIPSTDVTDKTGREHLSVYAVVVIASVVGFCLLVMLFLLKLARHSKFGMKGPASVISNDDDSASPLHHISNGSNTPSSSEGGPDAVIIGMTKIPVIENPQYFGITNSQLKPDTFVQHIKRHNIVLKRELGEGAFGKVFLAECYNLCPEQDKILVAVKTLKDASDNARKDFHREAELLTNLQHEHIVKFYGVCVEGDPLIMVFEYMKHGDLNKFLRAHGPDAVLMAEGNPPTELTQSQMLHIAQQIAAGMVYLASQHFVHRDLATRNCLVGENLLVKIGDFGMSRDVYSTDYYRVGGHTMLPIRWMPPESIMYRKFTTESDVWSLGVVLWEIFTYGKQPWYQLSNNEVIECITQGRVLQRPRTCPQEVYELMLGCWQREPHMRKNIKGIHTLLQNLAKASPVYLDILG
# Method in brief: as §1
# [1] = target: phosphorylated DDR1 (p-DDR1) (Homo sapiens (Human), UniProt Q08345); assay: Inhibition of phosphorylated DDR1 (p-DDR1) in T47D cells stimulated with rat tail collagen (western blot); format: cell-based
# Experimental: Human breast ductal carcinoma cell line T47D cells were inoculated in a 6-well plate and incubated overnight at 37° C. and 5% CO2. After the cells are prepared, 2 μL of Compound C1 (DMSO solution of gradient concentrations) was added to a cell plate which was incubated at 37° C. and 5% CO2 for 24 hours. Rat tail collagen (capable of stimulating DDR1 phosphorylation) was added to the cell plate followed by incubation for 2 hours at 37° C. and 5% CO2. Harvest of cell lysates: culture medium was aspirated as much as possible at the end of the culture until the wells were almost dry. 200 μL of ice-cold lysis buffer was added. Lysate was collected into a 1.5 mL eppendorf tube through scraping. Brief vortex was followed by spin at 12000 rpm for 15 minutes in a refrigerated centrifuge. 5× protein electrophoresis loading buffer was added and then the sample was boiled. The sample supernatant was added to a SDS-PAGE gel, followed by electrophoresis, electrotransfer, blocking, primary antibody (anti-phospho-DDR1 antibody and anti-GAPDH antibody) incubation, washing, secondary antibody incubation, washing, and fluorescence development.
# [2] = 1 uM Compound C1, read-out: % Inhibition (First measurement)
# [3] = 1 uM Compound C1, read-out: % Inhibition (Second measurement)
# [4] = 1 uM Compound C1, read-out: Average inhibition (%)
smiles,measurement,setting,value
"Cc1ccc(C(=O)Nc2ccccn2)cc1C#Cc1cnc2cc(C3=CCCCC3)cnn12 [Compound C1, 3-{2-[7-(cyclohex-1-en-1-yl)imidazo[1,2-b]pyridazin-3-yl]ethynyl}-4-methyl-N-(pyridin-2-yl)benzamide]",inhibition at 1 µM,BRSK2; [2],0.46%
same,inhibition at 1 µM,BRSK2; [3],-0.94%
same,inhibition at 1 µM,BRSK2; [4],-0.24%
same,inhibition at 1 µM,CDK5/p35NCK; [2],31.2%
same,inhibition at 1 µM,CDK5/p35NCK; [3],31.2%
same,inhibition at 1 µM,CDK5/p35NCK; [4],31.2%
same,inhibition at 1 µM,CK1α; [2],5.8%
same,inhibition at 1 µM,CK1α; [3],-5.89%
same,inhibition at 1 µM,CK1α; [4],-0.04%
same,inhibition at 1 µM,CLK1; [2],2.98%
same,inhibition at 1 µM,CLK1; [3],12.3%
same,inhibition at 1 µM,CLK1; [4],7.67%
same,inhibition at 1 µM,DYRK1B; [2],4.14%
same,inhibition at 1 µM,DYRK1B; [3],9.03%
same,inhibition at 1 µM,DYRK1B; [4],6.58%
same,inhibition at 1 µM,Erk2; [2],20.2%
same,inhibition at 1 µM,Erk2; [3],19.3%
same,inhibition at 1 µM,Erk2; [4],19.8%
same,inhibition at 1 µM,GSK3β; [2],0.83%
same,inhibition at 1 µM,GSK3β; [3],7.83%
same,inhibition at 1 µM,GSK3β; [4],4.33%
same,inhibition at 1 µM,JNK1; [2],4.56%
same,inhibition at 1 µM,JNK1; [3],5.69%
same,inhibition at 1 µM,JNK1; [4],5.13%
same,inhibition at 1 µM,NEK2; [2],8.18%
same,inhibition at 1 µM,NEK2; [3],2.89%
same,inhibition at 1 µM,NEK2; [4],5.54%
same,inhibition at 1 µM,PKD2; [2],-7.86%
same,inhibition at 1 µM,PKD2; [3],-6.58%
same,inhibition at 1 µM,PKD2; [4],-7.22%
same,inhibition at 1 µM,PLK2; [2],10.6%
same,inhibition at 1 µM,PLK2; [3],2.02%
same,inhibition at 1 µM,PLK2; [4],6.33%
same,inhibition at 1 µM,TRKB; [2],20.8%
same,inhibition at 1 µM,TRKB; [3],40.4%
same,inhibition at 1 µM,TRKB; [4],30.6%
same,Inhibition of the phosphorylation of DDR1 at the cellular level (in words),[1],can inhibit the phosphorylation of DDR1 at the cellular level
same,Ratio of p-DDR1 to GAPDH,[1]; compound C1 1.5 nM,0.3282
same,inhibition at 0.0015 µM,[1]; compound C1 1.5 nM,51.5%
same,p-DDR1 signal,[1]; compound C1 1.5 nM,490770
same,Ratio of p-DDR1 to GAPDH,[1]; compound C1 4.6 nM,0.2221
same,inhibition at 0.0046 µM,[1]; compound C1 4.6 nM,67.7%
same,p-DDR1 signal,[1]; compound C1 4.6 nM,350490
same,Ratio of p-DDR1 to GAPDH,[1]; compound C1 13.7 nM,0.3020
same,inhibition at 0.0137 µM,[1]; compound C1 13.7 nM,55.5%
same,p-DDR1 signal,[1]; compound C1 13.7 nM,417870
same,Ratio of p-DDR1 to GAPDH,[1]; compound C1 41.1 nM,0.4145
same,inhibition at 0.0411 µM,[1]; compound C1 41.1 nM,38.4%
same,p-DDR1 signal,[1]; compound C1 41.1 nM,583470
same,Ratio of p-DDR1 to GAPDH,[1]; compound C1 123 nM,0.2107
same,inhibition at 0.123 µM,[1]; compound C1 123 nM,69.4%
same,p-DDR1 signal,[1]; compound C1 123 nM,313140
same,Ratio of p-DDR1 to GAPDH,[1]; compound C1 370 nM,0.1244
same,inhibition at 0.37 µM,[1]; compound C1 370 nM,82.5%
same,p-DDR1 signal,[1]; compound C1 370 nM,164340
same,Ratio of p-DDR1 to GAPDH,[1]; compound C1 1111 nM,0.0363
same,inhibition at 1.111 µM,[1]; compound C1 1111 nM,95.9%
same,p-DDR1 signal,[1]; compound C1 1111 nM,51870
same,Ratio of p-DDR1 to GAPDH,[1]; compound C1 3333 nM,0.0183
same,inhibition at 3.333 µM,[1]; compound C1 3333 nM,98.7%
same,p-DDR1 signal,[1]; compound C1 3333 nM,27360
same,Ratio of p-DDR1 to GAPDH,[1]; compound C1 10000 nM,0.0094
same,inhibition at 10 µM,[1]; compound C1 10000 nM,100%
same,p-DDR1 signal,[1]; compound C1 10000 nM,14730
